{
  "source": "patent US20090221666A1",
  "about": "“STILBENE DERIVATIVES AND METHODS OF INHIBITING CANCER CELL GROWTH AND MICROBIAL GROWTH” (priority 2005, published 2009)",
  "key": {"[1]": {"tested_on": "P388 lymphocytic leukemia cell line", "assay_type": "cell-based", "conditions": "murine P388 lymphocytic leukemia cell line", "protocol": "(§1) Cytotoxicity assays were performed by the sulforhodamine B method, in which inhibition of formation of cellular protein is measured (Ref. 42). The mitotic index of MCF-7 breast cancer cells was determined as described previously (Ref. 27), except that cells were incubated in the presence of drug for 16 h prior to addition of the DNA stain."}, "BXPC-3": {"tested_on": "BXPC-3", "experiment": "cells", "assay_type": "cell-based, human", "protocol": "as §1"}, "DU145": {"tested_on": "DU145", "experiment": "cells", "assay_type": "cell-based, human", "protocol": "as §1"}, "KM20L2": {"tested_on": "KM20L2", "experiment": "cells", "assay_type": "cell-based, human", "protocol": "as §1"}, "MCF-7": {"tested_on": "MCF-7", "experiment": "cells", "assay_type": "cell-based, human", "protocol": "as §1"}, "NCI-H460": {"tested_on": "NCI-H460", "experiment": "cells", "assay_type": "cell-based, human", "protocol": "as §1"}, "SF-295": {"tested_on": "SF-295", "experiment": "cells", "assay_type": "cell-based, human", "protocol": "as §1"}, "[2]": {"tested_on": "human cancer cell lines and murine P388", "experiment": "cells", "assay_type": "cell-based", "protocol": "as §1"}, "Bovine brain tubulin": {"tested_on": "Bovine brain tubulin", "experiment": "Inhibition of tubulin assembly", "assay_type": "biochemical", "conditions": "1.0 mg/mL (10 μM) tubulin; read-out: Inhibition of tubulin assembly IC50 (μM) ± SD", "protocol": "(§2) Bovine brain tubulin was prepared and the tubulin assembly and colchicine binding assays were performed as described previously. In the assembly assay, reaction mixtures contained 1.0 mg/mL (10 μM) tubulin and varying concentrations of potential inhibitors. In the colchicine binding assay reaction mixtures contained 0.1 mg/mL (1.0 μM) tubulin, 5.0 μM [^3H]colchicine, and potential inhibitor as indicated. The vinblastine binding assay was performed as described previously for GTP binding by centrifugal gel filtration, except that a Beckman Allegra 6KR centrifuge equipped with a GH-3.8A swinging bucket rotor was used and the syringe-columns were centrifuged at 2,000 rpm (Ref. 38-41). Reaction mixtures contained 0.5 mg/mL (5.0 μM) tubulin, 5 μM [^3H]vinblastine, potential inhibitor as indicated, 0.5 mM MgCl2, 0.1 M 4-morpholineethanesulfonate (1.0 M stock solution adjusted to pH 6.9 with NaOH, and 4% (v/v) dimethyl sulfoxide. Incubation (30 min) and centrifugal gel filtration were performed at room temperature (20-22° C.)."}, "[3]": {"tested_on": "Bovine brain tubulin (colchicine site)", "experiment": "Inhibition of [3H]colchicine binding to tubulin", "conditions": "1.0 μM tubulin, 5.0 μM [3H]colchicine", "protocol": "as §2"}, "[4]": {"tested_on": "Bovine brain tubulin (vinca domain)", "experiment": "Inhibition of [3H]vinblastine binding to tubulin", "conditions": "5.0 μM tubulin, 5 μM [3H]vinblastine", "protocol": "as §2"}, "[5]": {"tested_on": "MCF-7 breast cancer cells", "experiment": "Inhibition of growth of MCF-7 breast cancer cells (sulforhodamine B)", "assay_type": "cell-based, human", "protocol": "as §1"}, "[6]": {"tested_on": "MCF-7 breast cancer cells", "experiment": "Mitotic index of MCF-7 cells", "assay_type": "cell-based, human", "conditions": "16 h at 10 times the IC50 concentration; without drug 2.9%", "protocol": "as §1"}, "[7]": {"tested_on": "Cryptococcus neoformans ATCC 90112", "experiment": "Broth microdilution assay, Cryptococcus neoformans", "assay_type": "cell-based", "conditions": "ATCC90112", "excerpt": "(§3) Compounds were screened in broth microdilution assays according to National Committee for Clinical Laboratory Standards (Ref. 43-44). Assays were repeated at least twice on separate days."}, "[8]": {"tested_on": "Neisseria gonorrhoeae ATCC 49226", "experiment": "Broth microdilution assay, Neisseria gonorrhoeae", "assay_type": "cell-based", "conditions": "ATCC49226, read-out: MIC", "excerpt": "as §3"}, "[9]": {"tested_on": "Streptococcus pneumoniae ATCC 6303", "experiment": "Broth microdilution assay, Streptococcus pneumoniae", "assay_type": "cell-based", "conditions": "ATCC6303", "excerpt": "as §3"}, "[10]": {"tested_on": "Enterococcus faecalis ATCC 29212", "experiment": "Broth microdilution assay, Enterococcus faecalis", "assay_type": "cell-based", "conditions": "ATCC29212, read-out: MIC", "excerpt": "as §3"}},
  "note": "Counter-ions that a name gives are not always drawn.",
  "data": [
    {"smiles": "CC[C@H](C)[C@@H]([C@@H](CC(=O)N1CCC[C@H]1[C@H](OC)[C@@H](C)C(=O)Nc1cc(/C=C\\c2cc(OC)c3c(c2)OCO3)ccc1OC)OC)N(C)C(=O)[C@@H](NC(=O)[C@H](C(C)C)N(C)C)C(C)C", "note": "[Compound 16, 3,4-Methylenedioxy-5,4′-dimethoxy-3′-(Dov-Val-Dil-Dap)-amido-Z-stilbene]", "values": [
      {"measurement": "Leukemia P388 ED50", "setting": "[1]", "result": "<0.01", "unit": "mg/L"},
      {"measurement": "Pancreas BXPC-3 GI50", "setting": "BXPC-3", "result": 0.048, "unit": "mg/L"},
      {"measurement": "Prostate DU145 GI50", "setting": "DU145; DU145", "result": 0.032, "unit": "mg/L"},
      {"measurement": "Colon KM20L2 GI50", "setting": "KM20L2; KM20L2", "result": 0.020, "unit": "mg/L"},
      {"measurement": "Breast MCF-7 GI50", "setting": "MCF-7; MCF-7", "result": 0.0031, "unit": "mg/L"},
      {"measurement": "Lung-NSC NCI-H460 GI50", "setting": "NCI-H460", "result": 0.033, "unit": "mg/L"},
      {"measurement": "CNS SF-295 GI50", "setting": "SF-295", "result": 0.025, "unit": "mg/L"},
      {"measurement": "inhibition of mini-panel of human cancer cell lines (in words)", "setting": "[2]", "result": "strongly inhibiting"},
      {"measurement": "IC50", "setting": "Bovine brain tubulin", "result": "1.3 ± 0.04", "unit": "µM"},
      {"measurement": "Inhibition of colchicine binding % Inhibition ± SD", "setting": "[3]; 50 μM inhibitor", "result": "30 ± 2", "unit": "%"},
      {"measurement": "Inhibition of vinblastine binding % Inhibition ± SD", "setting": "[4]; 10 μM inhibitor", "result": "48 ± 3", "unit": "%"},
      {"measurement": "Inhibition of vinblastine binding % Inhibition ± SD", "setting": "[4]; 80 μM inhibitor", "result": "87 ± 2", "unit": "%"},
      {"measurement": "IC50", "setting": "[5]; MCF-7, read-out: Inhibition of growth of MCF-7 breast cancer cells IC50 (nM) ± SD", "result": 17, "unit": "nM"},
      {"measurement": "times as active as hydrochloride 1b, MCF-7 cells", "setting": "[5]; relative to 1b", "result": "~4", "unit": "times"},
      {"measurement": "activity as fraction of D-10 (4a), MCF-7 cells", "setting": "[5]; relative to 4a", "result": "1/200"},
      {"measurement": "Mitotic index of MCF-7 cells % Mitoses", "setting": "[6]", "result": 57, "unit": "%"}
    ]},
    {"smiles": "COc1ccc(/C=C\\c2cc(OC)c3c(c2)OCO3)cc1NC(=O)[C@H](C)[C@@H](OC)[C@@H]1CCCN1", "note": "[Compound 14, 3,4-Methylenedioxy-5,4′-dimethoxy-3′-(N^α-L-Dap)-amido-Z-stilbene TFA salt]", "values": [
      {"measurement": "Leukemia P388 ED50", "setting": "[1]", "result": 0.0263, "unit": "mg/L"},
      {"measurement": "GI50", "setting": "BXPC-3; Homo sapiens, read-out: Pancreas BXPC-3 GI50", "result": 0.23, "unit": "mg/L"},
      {"measurement": "GI50", "setting": "DU145; Homo sapiens, DU-145, read-out: Prostate DU145 GI50", "result": 0.07, "unit": "mg/L"},
      {"measurement": "GI50", "setting": "KM20L2; Homo sapiens, KM-20L2, read-out: Colon KM20L2 GI50", "result": 0.26, "unit": "mg/L"},
      {"measurement": "GI50", "setting": "MCF-7; Homo sapiens, MCF7, read-out: Breast MCF-7 GI50", "result": 0.054, "unit": "mg/L"},
      {"measurement": "GI50", "setting": "NCI-H460; Homo sapiens, read-out: Lung-NSC NCI-H460 GI50", "result": 0.083, "unit": "mg/L"},
      {"measurement": "GI50", "setting": "SF-295; Homo sapiens, read-out: CNS SF-295 GI50", "result": 0.062, "unit": "mg/L"},
      {"measurement": "IC50", "setting": "[2]; Mus musculus, P388, mean over the cell lines of Table 2, read-out: Mean", "result": 0.11, "unit": "mg/L"},
      {"measurement": "inhibition of mini-panel of human cancer cell lines (in words)", "setting": "[2]", "result": "strongly inhibiting"},
      {"measurement": "MIC", "setting": "[7]", "result": 64, "unit": "mg/L"},
      {"measurement": "MIC", "setting": "[8]", "result": 16, "unit": "mg/L"},
      {"measurement": "MIC", "setting": "[9]", "result": "8 to 16", "unit": "mg/L"},
      {"measurement": "MIC", "setting": "[10]", "result": "32 to 64", "unit": "mg/L"}
    ]},
    {"smiles": "COc1ccc(C=Cc2cc(OC)c(OC)c(OC)c2)cc1O", "note": "[Compound 2g, combretastatin A-4]", "values": [
      {"measurement": "IC50", "setting": "Bovine brain tubulin", "result": "[…]"},
      {"measurement": "Inhibition of colchicine binding % Inhibition ± SD", "setting": "[3]; 2 μM inhibitor", "result": "98 ± 0.4", "unit": "%"},
      {"measurement": "Inhibition of vinblastine binding % Inhibition ± SD", "setting": "[4]; 10 μM inhibitor", "result": 0, "unit": "%"},
      {"measurement": "Inhibition of vinblastine binding % Inhibition ± SD", "setting": "[4]; 80 μM inhibitor", "result": 0, "unit": "%"}
    ]}
  ]
}
